Consider seven compounds from PubChem BioAssay AID1259411 (Chemical Carcinogenesis Research Information System (CCRIS), 2018).

This data set has as its system rodent carcinogenicity bioassays, tumor incidence. In words: CCRIS carcinogenicity studies. In outline:
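Archive of carcinogenicity, mutagenicity, tumor promotion and tumor inhibition results drawn from journals, NCI reports and other sources, expert-reviewed; covers 1985-2011 and is no longer updated.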

The source made the active and inactive calls. No rule for the calls is given here.

Consider `ClC(Cl)C(Cl)(Cl)Cl`, for which the carcinogen call is “active; positive” (Species: MOUSE, Strain/Sex: B6C3F1/FEMALE, Route: GAVAGE, Dose: 250, 500 MG/KG IN CORN OIL FOR 41-103 WK (STUDY DURATION: 41-103 WK), Tumor Site: Type of Lesion: LIVER: HEPATOCELLULAR ADENOMA, CARCINOMA); “active; positive” (Species: MOUSE, Strain/Sex: B6C3F1/MALE, Route: GAVAGE, Dose: 250, 500 MG/KG IN CORN OIL FOR 41-103 WK (STUDY DURATION: 41-103 WK), Tumor Site: Type of Lesion: LIVER: HEPATOCELLULAR CARCINOMA); “inactive; negative” (Species: RAT, Strain/Sex: F344/FEMALE, Route: GAVAGE, Dose: 0, 75, 150 MG/KG IN CORN OIL FOR 103 WK (STUDY DURATION: 103 WK), Dose: 0, 75, 150 MG/KG IN CORN OIL FOR 103 WK (STUDY DURATION: 103 WK)); “equivocal” (Species: RAT, Strain/Sex: F344/MALE, Route: GAVAGE, Dose: 0, 75, 150 MG/KG IN CORN OIL FOR 103 WK (STUDY DURATION: 103 WK), Dose: 0, 75, 150 MG/KG IN CORN OIL FOR 103 WK (STUDY DURATION: 103 WK), Tumor Site: Type of Lesion: KIDNEY: TUBULAR CELL ADENOMA).

Regarding `OCC(CO)NC1CC(O)(CO)C(O)C(O)C1O` (stereo unspecified), the carcinogen call is “inactive; negative” (Species: MOUSE, Strain/Sex: CD-1/FEMALE, Route: GAVAGE, Dose: 0, 15, 50, 150 MG/KG/D IN DISTILLED WATER (STUDY DURATION: 105 WK), Dose: 0, 15, 50, 150 MG/KG/D IN DISTILLED WATER (STUDY DURATION: 105 WK)); “inactive; negative” (Species: MOUSE, Strain/Sex: CD-1/MALE, Route: GAVAGE, Dose: 0, 15, 50, 150 MG/KG/D IN DISTILLED WATER (STUDY DURATION: 105 WK), Dose: 0, 15, 50, 150 MG/KG/D IN DISTILLED WATER (STUDY DURATION: 105 WK)); “inactive; negative” (Species: RAT, Strain/Sex: F344/FEMALE, Route: GAVAGE, Dose: 0, 3, 10, 30 MG/KG/D IN DISTILLED WATER FOR 24 MO (STUDY DURATION: 110 WK), Dose: 0, 3, 10, 30 MG/KG/D IN DISTILLED WATER FOR 24 MO (STUDY DURATION: 110 WK)); “inactive; negative” (Species: RAT, Strain/Sex: F344/MALE, Route: GAVAGE, Dose: 0, 3, 10, 30 MG/KG/D IN DISTILLED WATER FOR 24 MO (STUDY DURATION: 110 WK), Dose: 0, 3, 10, 30 MG/KG/D IN DISTILLED WATER FOR 24 MO (STUDY DURATION: 110 WK)).

As for `O[C@H]1C=Cc2c(ccc3ncccc23)[C@@H]1O`, the carcinogen call (Species: MOUSE, Strain/Sex: CD-1/FEMALE, Route: INTRAPERITONEAL, Dose: 0, 5, 10 AND 20 µL OF A 0.05 MOLAR SOLUTION ON DAYS 1, 8 AND 15 OF LIFE RESPECTIVELY (TOTAL DOSE: 1.75 UMOL) (STUDY DURA, Dose: 0, 5, 10 AND 20 µL OF A 0.05 MOLAR SOLUTION ON DAYS 1, 8 AND 15 OF LIFE RESPECTIVELY (TOTAL DOSE: 1.75 UMOL) (STUDY DURA) was “inactive; negative” and the carcinogen call (Species: MOUSE, Strain/Sex: CD-1/MALE, Route: INTRAPERITONEAL, Dose: 0, 5, 10 AND 20 µL OF A 0.05 MOLAR SOLUTION ON DAYS 1, 8 AND 15 OF LIFE RESPECTIVELY (TOTAL DOSE: 1.75 UMOL) (STUDY DURA, Dose: 0, 5, 10 AND 20 µL OF A 0.05 MOLAR SOLUTION ON DAYS 1, 8 AND 15 OF LIFE RESPECTIVELY (TOTAL DOSE: 1.75 UMOL) (STUDY DURA) was “inactive; negative”.

On to `CC(Cl)CCl` (stereo unspecified), for which the carcinogen call was “active; positive” (Species: MOUSE, Strain/Sex: B6C3F1/FEMALE, Route: GAVAGE, Dose: 0, 125, 250 MG/KG IN CORN OIL 5 D/WK FOR 103 WK (STUDY DURATION: 104 WK), Dose: 0, 125, 250 MG/KG IN CORN OIL 5 D/WK FOR 103 WK (STUDY DURATION: 104 WK), Tumor Site: Type of Lesion: LIVER: ADENOMA, ADENOMA OR CARCINOMA); “active; positive” (Species: MOUSE, Strain/Sex: B6C3F1/MALE, Route: GAVAGE, Dose: 0, 125, 250 MG/KG IN CORN OIL 5 D/WK FOR 103 WK (STUDY DURATION: 104 WK), Dose: 0, 125, 250 MG/KG IN CORN OIL 5 D/WK FOR 103 WK (STUDY DURATION: 104 WK), Tumor Site: Type of Lesion: LIVER: ADENOMA, ADENOMA OR CARCINOMA); “equivocal” (Species: RAT, Strain/Sex: F344/FEMALE, Route: GAVAGE, Dose: 0, 125, 150 MG/KG IN CORN OIL 5 D/WK FOR 103 WK (STUDY DURATION: 104 WK), Dose: 0, 125, 150 MG/KG IN CORN OIL 5 D/WK FOR 103 WK (STUDY DURATION: 104 WK), Tumor Site: Type of Lesion: MAMMARY GLAND: ADENOCARCINOMA); “inactive; negative” (Species: RAT, Strain/Sex: F344/MALE, Route: GAVAGE, Dose: 0, 62, 125 MG/KG IN CORN OIL 5 D/WK FOR 103 WK (STUDY DURATION: 104 WK), Dose: 0, 62, 125 MG/KG IN CORN OIL 5 D/WK FOR 103 WK (STUDY DURATION: 104 WK)).

`Cc1cc(Cc2ccc(N)c(C)c2)ccc1N`: the carcinogen call (Species: RAT, Route: ORAL, Tumor Site: Type of Lesion: LIVER) was “active; positive”.

In the case of `CCCc1cc2ccccc2c2ccc3c(c12)C1OC1C(O)C3O` (stereo unspecified), the carcinogen call (Species: MOUSE, Strain/Sex: ICR/FEMALE, Route: INTRAPERITONEAL, Dose: 0, 8 NMOL IN 5 µL DMSO ON D 1, 16 NMOL IN 10 µL ON D 8 AND 32 NMOL IN 20 µL ON D 15 OF LIFE (STUDY DURATION: 35 WK)) was “inactive; negative” and the carcinogen call (Species: MOUSE, Strain/Sex: ICR/MALE, Route: INTRAPERITONEAL, Dose: 0, 8 NMOL IN 5 µL DMSO ON D 1, 16 NMOL IN 10 µL ON D 8 AND 32 NMOL IN 20 µL ON D 15 OF LIFE (STUDY DURATION: 35 WK)) was “inactive; negative”.

Take `OCC1CO1` (stereo unspecified): the carcinogen call (Species: MOUSE, Strain/Sex: B6C3F1/FEMALE, Route: GAVAGE, Dose: 0, 25, 50 MG/KG IN DISTILLED WATER 5 D/WK FOR 103 WK (STUDY DURATION: 105 WK), Dose: 0, 25, 50 MG/KG IN DISTILLED WATER 5 D/WK FOR 103 WK (STUDY DURATION: 105 WK), Tumor Site: Type of Lesion: SUBCUTANEOUS TISSUE: SARCOMA, SARCOMA OR FIBROSARCOMA, MAMMARY GLAND: ADENOCARCINOMA, ADENOMA OR FIBROADENOMA OR ADENOCA) was “active; positive”; the carcinogen call (Species: MOUSE, Strain/Sex: B6C3F1/MALE, Route: GAVAGE, Dose: 0, 25, 50 MG/KG IN DISTILLED WATER 5 D/WK FOR 103 WK (STUDY DURATION: 105 WK), Dose: 0, 25, 50 MG/KG IN DISTILLED WATER 5 D/WK FOR 103 WK (STUDY DURATION: 105 WK), Tumor Site: Type of Lesion: SKIN: SQUAMOUS CELL PAPILLOMA, LUNG: ALVEOLAR/BRONCHIOLAR ADENOMA OR CARCINOMA, LIVER: HEPATOCELLULAR ADENOMA, HEPATOCEL, Tumor Site: Type of Lesion: SKIN: SQUAMOUS CELL PAPILLOMA, LUNG: ALVEOLAR/BRONCHIOLAR ADENOMA OR CARCINOMA, LIVER: HEPATOCELLULAR ADENOMA, HEPATOCEL) was “active; positive”; the carcinogen call (Species: RAT, Strain/Sex: F344/FEMALE, Route: GAVAGE, Dose: 0, 37.5, 75 MG/KG IN DISTILLED WATER 5 D/WK FOR 103 WK (STUDY DURATION: 104 WK), Dose: 0, 37.5, 75 MG/KG IN DISTILLED WATER 5 D/WK FOR 103 WK (STUDY DURATION: 104 WK), Tumor Site: Type of Lesion: HEMATOPOIETIC SYSTEM: MONONUCLEAR CELL LEUKEMIA, ORAL CAVITY (MOUTH OR TONGUE): SQUAMOUS CELL PAPILLOMA OR CARCINOMA, FO, Tumor Site: Type of Lesion: HEMATOPOIETIC SYSTEM: MONONUCLEAR CELL LEUKEMIA, ORAL CAVITY (MOUTH OR TONGUE): SQUAMOUS CELL PAPILLOMA OR CARCINOMA, FO) was “active; positive”; the carcinogen call (Species: RAT, Strain/Sex: F344/MALE, Route: GAVAGE, Dose: 0, 37.5, 75 MG/KG IN DISTILLED WATER 5 D/WK FOR 103 WK (STUDY DURATION: 104 WK), Dose: 0, 37.5, 75 MG/KG IN DISTILLED WATER 5 D/WK FOR 103 WK (STUDY DURATION: 104 WK), Tumor Site: Type of Lesion: SKIN: SEBACEOUS GLAND ADENOMA OR BASAL CELL TUMOR OR SEBACEOUS GLAND ADENOCARCINOMA, FORESTOMACH: SQUAMOUS CELL PAPILLOM) is “active; positive”.
